Assays:
[1] = tested on: professional panel composed of 2 women and 3 men; experiment: Tasting of 0.3% NaCl solutions by a professional panel (Example 2); type: in vivo, human
Procedure: (§1) Two solutions were prepared:
A—a solution of 0.3% NaCl and 0.05% MSG
B—a solution of 0.3% NaCl and 3 ppm of N1-geranyl-N2-(2-(pyridin-2-yl)ethyl)oxalamide.
The samples were tasted by a professional panel composed of 2 women and 3 men aged between 30 and 60. The panel agreed that both solutions tasted umami.

[2] = tested on: professional panel composed of 2 women and 3 men; experiment: Tasting of NaCl/MSG/ribonucleotide solutions with reduced MSG by a professional panel (Example 3); type: in vivo, human; conditions: solution B (0.5% NaCl, 0.05% MSG, 0.010% ribonucleotide mixture, 1.5 ppm compound) vs solution A (0.5% NaCl, 0.15% MSG, 0.025% ribonucleotide mixture)
Procedure: as §1
A—a solution of 0.5% NaCl, 0.15% MSG and 0.025% Ribonucleotide mixture
B—a solution of 0.5% NaCl, 0.05% MSG, 0.010% Ribonucleotide mixture and 1.5 ppm of N1-geranyl-N2-(2-(pyridin-2-yl)ethyl)oxalamide.
The samples were tasted by a professional panel composed of 2 women and 3 men aged between 30 and 60.

[3] = General finding on umami flavour quality; conditions: very low dosages; in contrast to many other non-MSG umami flavourants
[4] = solution B (0.3% NaCl, 3 ppm compound) vs solution A (0.3% NaCl, 0.05% MSG)

CC(C)=CCC/C(C)=C/CNC(=O)C(=O)NCCc1ccccn1 [N1-geranyl-N2-(2-(pyridin-2-yl)ethyl)oxalamide]
further taste attributes compared with solution A [1, 4]: more succulence and sweetness and had more lingering savoury notes
umami strength compared with solution A [1, 4]: slightly stronger umami
umami taste ([1]; solution B: 0.3% NaCl and 3 ppm of compound): tasted umami
umami strength compared with solution A [2]: equal umami strength

CC(C)=CCC/C(C)=C/CNC(=O)C(=O)NCCc1ccccn1 [the Umami Compound]
umami flavour and its quality [3]: clean, non-artificial taste

N[C@@H](CCC(=O)O)C(=O)[O-].[Na+] [MSG, monosodium glutamate, reference compound]
umami taste ([1]; solution A: 0.3% NaCl and 0.05% MSG): tasted umami
